Laboratory results taken from patent publication US4086349A, “Quinolopyran-4-one-2-carboxylic acid derivatives and salts thereof as novel compounds and as medicines for treatment of allergic asthma” (Mitsubishi Yuka Pharmaceutical Co., Ltd., priority 1975, dated 1978).

Key:
[1] = test system: passive cutaneous anaphylaxis; experiment: Passive cutaneous anaphylaxis tests (PCA) on rats; assay type: in vivo, SLC-strain Wistar rat; settings: intravenous, rat PCA; for inhibition in vivo at 3 mg/kg / inhibition in vivo at 0.3 mg/kg: read-out: Inhibition rate
Experimental: To test the effectiveness of compounds of this invention for treatment of allergic asthma, evaluation of antiallergy effect was carried out by passive cutaneous anaphylaxis tests (PCA) on rats.
Rats (SLC-strain Wistar rat) were immunized with egg albumin which had been recrystallized five times and Bodetella pertussis vaccine, and, after 13 days, serum was taken from these rats.
This serum was diluted to 1/128 and intradermally injected into the back of rats. 48 hours thereafter, the compounds of the invention as set forth in the following table in the form of salts thereof with tris (hydroxymethyl)methyl ammonium dissolved in saline in the indicated quantities as the salts were administered intravenously, and 5 minutes thereafter, saline in which egg albumin and Evans Blue were dissolved was challenged intravenously. After 30 minutes, the animals were killed and the skins were removed and the quantity of the Evans Blue which has leaked as a result of the antigen antibody reaction was extracted through the use of Na2 SO4 solution and acetone, colorimetry being carried out at 620 mμ.

allergic asthma = experiment: Classification in view of activity on treatment of allergic asthma; assay type: in vivo; settings: first group most preferable, second more preferable, third preferable
[2] = 50% lethal dose (LD50), i.v., mouse; settings: in vivo, iv
[3] = dose 3 mg/kg (quantity as the tris (hydroxymethyl) methyl ammonium salt)
[4] = dose 0.3 mg/kg (quantity as the tris (hydroxymethyl) methyl ammonium salt)

Question: Which inhibition in vivo at 3 mg/kg [1, 3] does the source give for COc1cc2nc(O)c3c(=O)cc(C(=O)O)oc3c2cc1OC [Compound 16, 8,9-dimethoxy-5-hydroxy-quinolo[4,3-b]-pyran-4-one-2-carboxylic acid] here?
Answer: The inhibition in vivo at 3 mg/kg was 90%.

Question: Which inhibition in vivo at 0.3 mg/kg [1, 4] does the source give for Cc1ccc2c(nc(O)c3c(=O)cc(C(=O)O)oc32)c1C [Compound 1, 7,8-dimethyl-5-hydroxy-quinolo [4,3-b]-pyran-4-one-2-carboxylic acid] here?
Answer: The inhibition in vivo at 0.3 mg/kg was 98%.

Question: And the inhibition in vivo at 3 mg/kg [1, 3]?
Answer: The inhibition in vivo at 3 mg/kg was 100%.

Question: And the “preference group in view of activity on treatment of allergic asthma” value (“preference group in view of activity” for short) (allergic asthma)?
Answer: The value was “most preferable”.

Question: And the LD50 [2]?
Answer: The LD50 was 560 mg/kg.

Question: What about the selectivity ratio [2] of the same molecule?
Answer: The selectivity ratio was 20000.

Question: Which inhibition in vivo at 3 mg/kg [1, 3] does the source give for COc1ccc2c(c1)nc(O)c1c(=O)cc(C(=O)O)oc12 [Compound 15, 8-methoxy-5-hydroxy-quinolo[4,3-b]-pyran-4-one-2-carboxylic acid] here?
Answer: The inhibition in vivo at 3 mg/kg was 90%.

Question: With COc1cccc2c1nc(O)c1c(=O)cc(C(=O)O)oc12 [Compound 5, 7-methoxy-5-hydroxy-quinolo[4,3-b]-pyran-4-one-2-carboxylic acid] as the molecule, how does the inhibition in vivo at 0.3 mg/kg [1, 4] read?
Answer: The inhibition in vivo at 0.3 mg/kg was 37%.

Question: And the inhibition in vivo at 3 mg/kg [1, 3]?
Answer: Its inhibition in vivo at 3 mg/kg is 98%.

Question: For CCCCc1ccc2nc(O)c3c(=O)cc(C(=O)O)oc3c2c1 [Compound 6, 9-n-butyl-5-hydroxy-quinolo[4,3-b]-pyran-4-one-2-carboxylic acid], which inhibition in vivo at 0.3 mg/kg [1, 4] is on record?
Answer: Its inhibition in vivo at 0.3 mg/kg is 26%.

Question: What about the inhibition in vivo at 3 mg/kg [1, 3] of the same molecule?
Answer: Its inhibition in vivo at 3 mg/kg is 94%.

Question: Which results are given for CCOC(=O)c1ccc2nc(O)c3c(=O)cc(C(=O)O)oc3c2c1 [Compound 9, 9-ethoxycarbonyl-5-hydroxy-quinolo[4,3-b]-pyran-4-one-2-carboxylic acid]?
Answer: inhibition in vivo at 0.3 mg/kg [1, 4]: 39%; inhibition in vivo at 3 mg/kg [1, 3]: 100%; preference group in view of activity on treatment of allergic asthma (allergic asthma): more preferable

Question: Which inhibition in vivo at 3 mg/kg [1, 3] does the source give for O=C(O)c1cc(=O)c2c(O)nc3ccc(F)cc3c2o1 [Compound 14, 9-fluoro-5-hydroxy-quinolo[4,3-b]-pyran-4-one-2-carboxylic acid] here?
Answer: Its inhibition in vivo at 3 mg/kg is 90%.

Question: Which inhibition in vivo at 0.3 mg/kg [1, 4] does the source give for O=C(O)c1cc(=O)c2c(O)nc3ccc(Cl)cc3c2o1 [Compound 7, 9-chloro-5-hydroxy-quinolo[4,3-b]-pyran-4-one-2-carboxylic acid] here?
Answer: Its inhibition in vivo at 0.3 mg/kg is 67%.

Question: What about the inhibition in vivo at 3 mg/kg [1, 3] of the same molecule?
Answer: Its inhibition in vivo at 3 mg/kg is 100%.

Question: What about the “preference group in view of activity” value (allergic asthma) of the same molecule?
Answer: The value was “most preferable”.

Question: What does the source list for O=C(O)c1cc(=O)c2c(O)nc3ccc(-c4ccccc4)cc3c2o1 [Compound 10, 9-phenyl-5-hydroxy-quinolo[4,3-b]-pyran-4-one-2-carboxylic acid]?
Answer: inhibition in vivo at 3 mg/kg [1, 3]: 90%; preference group in view of activity on treatment of allergic asthma (allergic asthma): preferable

Question: Which inhibition in vivo at 3 mg/kg [1, 3] does the source give for Cc1cc(C)c2nc(O)c3c(=O)cc(C(=O)O)oc3c2c1 [Compound 12, 7,9-dimethyl-5-hydroxy-quinolo[4,3-b]-pyran-4-one-2-carboxylic acid] here?
Answer: The inhibition in vivo at 3 mg/kg was 90%.

Question: With Cc1c(Cl)ccc2c1nc(O)c1c(=O)cc(C(=O)O)oc12 [Compound 11, 7-methyl-8-chloro-5-hydroxy-quinolo[4,3-b]-pyran-4-one-2-carboxylic acid] as the molecule, how does the Inhibition rate [1, 4] read?
Answer: The Inhibition rate was 26%.

Question: And the Inhibition rate [1, 3]?
Answer: Its Inhibition rate is 87%.

Question: What about the “preference group in view of activity” value (allergic asthma) of the same molecule?
Answer: The value was “more preferable”.

Question: Which results are given for Cc1ccc2nc(O)c3c(=O)cc(C(=O)O)oc3c2c1 [Compound 2, 9-methyl-5-hydroxy-quinolo [4,3-b]-pyran-4-one-2-carboxylic acid]?
Answer: inhibition in vivo at 0.3 mg/kg [1, 4]: 63%; inhibition in vivo at 3 mg/kg [1, 3]: 100%; preference group in view of activity on treatment of allergic asthma (allergic asthma): most preferable

Question: Which inhibition in vivo at 0.3 mg/kg [1, 4] does the source give for O=C(O)c1cc(=O)c2c(O)nc3ccc(OCc4ccccc4)cc3c2o1 [Compound 8, 9-benzyloxy-5-hydroxy-quinolo[4,3-b]-pyran-4-one-2-carboxylic acid] here?
Answer: The inhibition in vivo at 0.3 mg/kg was 34%.

Question: What about the inhibition in vivo at 3 mg/kg [1, 3] of the same molecule?
Answer: The inhibition in vivo at 3 mg/kg was 96%.

Question: And the “preference group in view of activity” value (allergic asthma)?
Answer: Its value is “more preferable”.

Question: With O=C(O)c1cc(=O)c2c(O)nc3ccc(Br)cc3c2o1 [Compound 13, 9-bromo-5-hydroxy-quinolo[4,3-b]-pyran-4-one-2-carboxylic acid] as the molecule, how does the inhibition in vivo at 3 mg/kg [1, 3] read?
Answer: Its inhibition in vivo at 3 mg/kg is 90%.

Question: With COc1ccc2nc(O)c3c(=O)cc(C(=O)O)oc3c2c1 [Compound 4, 9-methoxy-5-hydroxy-quinolo[4,3-b]-pyran-4-one-2-carboxylic acid] as the molecule, how does the inhibition in vivo at 0.3 mg/kg [1, 4] read?
Answer: Its inhibition in vivo at 0.3 mg/kg is 38%.

Question: And the inhibition in vivo at 3 mg/kg [1, 3]?
Answer: The inhibition in vivo at 3 mg/kg was 98%.

Question: With Cc1cccc2c1nc(O)c1c(=O)cc(C(=O)O)oc12 [Compound 3, 7-methyl-5-hydroxy-quinolo [4,3-b]-pyran-4-one-2-carboxylic acid] as the molecule, how does the inhibition in vivo at 0.3 mg/kg [1, 4] read?
Answer: The inhibition in vivo at 0.3 mg/kg was 27%.

Question: And the inhibition in vivo at 3 mg/kg [1, 3]?
Answer: Its inhibition in vivo at 3 mg/kg is 100%.

Question: For CCc1ccc2nc(O)c3c(=O)cc(C(=O)O)oc3c2c1 [Compound 17, 9-ethyl-5-hydroxy-quinolo[4,3-b]-pyran-4-one-2-carboxylic acid], which inhibition in vivo at 3 mg/kg [1, 3] is on record?
Answer: The inhibition in vivo at 3 mg/kg was 90%.
